Our source for the responders values is patent publication US12286440B2, “Penam derivative or salt thereof, pharmaceutical composition, and applications thereof” (priority 2018, dated 2025).

The subject of this test is multidrug-resistant Pseudomonas aeruginosa strain (S-2838 strain). The test is described as follows: Test for protection against systemic infection in mouse with multidrug-resistant Pseudomonas aeruginosa. It counts as in vivo, ICR male SPF mice. Particulars: sc, 72 h, read-out: survival rate. As for the experimental part:
As mice, ICR male SPF mice (4 weeks old: 10 mice per group) were used. Clinically isolated multidrug-resistant Pseudomonas aeruginosa strain (S-2838 strain) cultured overnight on a Mueller-Hinton agar plate at 37° C. was cultured on a cation-adjusted Mueller Hinton medium for 5 hours, and then diluted 20-fold with a 10% mucin/phosphate buffer, thereby preparing an inoculum. An infection was induced by intraperitoneally inoculating the mice with the inoculum at 0.5 mL (about 10^6 CFU/mouse). Each test compound was dissolved in physiological saline, and 1 hour after the infection, the compound was subcutaneously administered once to the mice at 40 mg/kg. The control group was administered with the same amount of physiological saline used as a vehicle. The number of surviving mice was recorded 3 days after the infection.
A test for protection against systemic infection in a mouse with multidrug-resistant Pseudomonas aeruginosa was performed in the same manner as in Test Example 2.
Take `CC(C)(O/N=C(\C(=O)N[C@@H]1C(=O)N2C[C@@](C(=O)O)(N3CCN(NC(=O)C(=O)c4ccc(O)c(O)c4Cl)C3=O)S[C@H]12)c1csc(N)n1)C(=O)O` [Example 20, (3R,5R,6R)-6-((Z)-2-(2-aminothiazol-4-yl)-2-(((2-carboxypropan-2-yl)oxy)imino)acetamido)-3-(3-(2-(2-chloro-3,4-dihydroxyphenyl)-2-oxoacetamido)-2-oxoimidazolidin-1-yl)-7-oxo-4-thia-1-azabicyclo[3.2.0]heptane-3-carboxylate]: the responders at 40 mg/kg is at least 90%.
The same measure for `Nc1nc(/C(=N/OC2(C(=O)O)CC2)C(=O)N[C@@H]2C(=O)N3C[C@@](C(=O)O)(N4CCN(NC(=O)C(=O)c5ccc(O)c(O)c5Cl)C4=O)S[C@H]23)cs1` [Example 21, (3R,5R,6R)-6-((Z)-2-(2-aminothiazol-4-yl)-2-((1-carboxycyclopropoxy)imino)acetamido)-3-(3-(2-(2-chloro-3,4-dihydroxyphenyl)-2-oxoacetamido)-2-oxoimidazolidin-1-yl)-7-oxo-4-thia-1-azabicyclo[3.2.0]heptane-3-carboxylate]: at least 90%; for `CC(C)(O/N=C(\C(=O)N[C@@H]1C(=O)N2C[C@@](C(=O)O)(N3CCN(NC(=O)C(=O)c4ccc(O)c(O)c4Cl)C3=O)S[C@H]12)c1nc(N)sc1Cl)C(=O)O` [Example 22, (3R,5R,6R)-6-((Z)-2-(2-amino-5-chlorothiazol-4-yl)-2-(((2-carboxypropan-2-yl)oxy)imino)acetamido)-3-(3-(2(2-chloro-3,4-dihydroxyphenyl)-2-oxoacetamido)-2-oxoimidazolidin-1-yl)-7-oxo-4-thia-1-azabicyclo[3.2.0]heptane-3-carboxylate]: at least 90%.
For `CC(C)(O/N=C(\C(=O)N[C@@H]1C(=O)N2C[C@@](C(=O)O)(N3CCN(NC(=O)C(=O)c4ccc(O)c(O)c4Cl)C3=O)S[C@H]12)c1nsc(N)n1)C(=O)O` [Example 23, (3R,5R,6R)-6-((Z)-2-(5-amino-1,2,4-thiadiazol-3-yl)-2-(((2-carboxypropan-2-yl)oxy)imino)acetamido)-3-(3-(2-(2-chloro-3,4-dihydroxyphenyl)-2-oxoacetamido)-2-oxoimidazolidin-1-yl)-7-oxo-4-thia-1-azabicyclo[3.2.0]heptane-3-carboxylate] the value was at least 90%; for `Nc1nc(/C(=N/OC2(C(=O)O)CC2)C(=O)N[C@@H]2C(=O)N3C[C@@](C(=O)O)(N4CCN(NC(=O)CCNC(=O)C(=O)c5ccc(O)c(O)c5Cl)C4=O)S[C@H]23)cs1` [Example 31, (3R,5R,6R)-6-((Z)-2-(2-aminothiazol-4-yl)-2-((1-carboxycyclopropoxy)imino)acetamido)-3-(3-(3-(2-(2-chloro-3,4-dihydroxyphenyl)-2-oxoacetamido)propanamido)-2-oxoimidazolidin-1-yl)-7-oxo-4-thia-1-azabicyclo[3.2.0]heptane-3-carboxylate], at least 90%; for `CC(C)(O/N=C(\C(=O)N[C@@H]1C(=O)N2C[C@@](C(=O)O)(N3CCN(NC(=O)c4cc(Cl)c(O)c(O)c4Cl)C3=O)S[C@H]12)c1csc(N)n1)C(=O)O` [Example 83, (3R,5R,6R)-6-((Z)-2-(2-aminothiazol-4-yl)-2-(((2-carboxypropan-2-yl)oxy)imino)acetamido)-3-(3-(2,5-dichloro-3,4-dihydroxybenzamido)-2-oxoimidazolidin-1-yl)-7-oxo-4-thia-1-azabicyclo[3.2.0]heptane-3-carboxylate], at least 90%.
For `CC[C@H](O/N=C(\C(=O)N[C@@H]1C(=O)N2C[C@@](C(=O)O)(N3CCN(NC(=O)C(=O)c4ccc(O)c(O)c4Cl)C3=O)S[C@H]12)c1csc(N)n1)C(=O)O` [Example 105, (3R,5R,6R)-6-((Z)-2-(2-aminothiazol-4-yl)-2-(((S)-1-carboxypropoxy)imino)acetamido)-3-(3-(2-(2-chloro-3,4-dihydroxyphenyl)-2-oxoacetamido)-2-oxoimidazolidin-1-yl)-7-oxo-4-thia-1-azabicyclo[3.2.0]heptane-3-carboxylate] the value was at least 90%; for `CC(C)[C@H](O/N=C(\C(=O)N[C@@H]1C(=O)N2C[C@@](C(=O)O)(N3CCN(NC(=O)C(=O)c4ccc(O)c(O)c4Cl)C3=O)S[C@H]12)c1csc(N)n1)C(=O)O` [Example 114, (3R,5R,6R)-6-((Z)-2-(2-aminothiazol-4-yl)-2-(((S)-1-carboxy-2-methylpropoxy)imino)acetamido)-3-(3-(2-(2-chloro-3,4-dihydroxyphenyl)-2-oxoacetamido)-2-oxoimidazolidin-1-yl)-7-oxo-4-thia-1-azabicyclo[3.2.0]heptane-3-carboxylate], at least 90%.
`CC(C)(O/N=C(\C(=O)N[C@@H]1C(=O)N2C[C@@](C(=O)O)(N3CCN(NC(=O)/C(=N\O)c4ccc(O)c(O)c4Cl)C3=O)S[C@H]12)c1csc(N)n1)C(=O)O` [Example 117, (3R,5R,6R)-6-((Z)-2-(2-aminothiazol-4-yl)-2-(((2-carboxypropan-2-yl)oxy)imino)acetamido)-3-(3-((Z)-2-(2-chloro-3,4-dihydroxyphenyl)-2-(hydroxyimino)acetamido)-2-oxoimidazolidin-1-yl)-7-oxo-4-thia-1-azabicyclo[3.2.0]heptane-3-carboxylate]: the responders at 40 mg/kg was at least 90%.
The same measure for `CC(C)(O/N=C(\C(=O)N[C@@H]1C(=O)N2C[C@@](C(=O)O)(N3CCN(NC(=O)CCNC(=O)/C(=N\O)c4ccc(O)c(O)c4Cl)C3=O)S[C@H]12)c1csc(N)n1)C(=O)O` [Example 122, (3R,5R,6R)-6-((Z)-2-(2-aminothiazol-4-yl)-2-(((2-carboxypropan-2-yl)oxy)imino)acetamido)-3-(3-(3-((Z)-2-(2-chloro-3,4-dihydroxyphenyl)-2-(hydroxyimino)acetamido)propanamido)-2-oxoimidazolidin-1-yl)-7-oxo-4-thia-1-azabicyclo[3.2.0]heptane-3-carboxylate]: at least 90%.
For `CC(C)(O/N=C(\C(=O)N[C@@H]1C(=O)N2C[C@@](C(=O)O)(N3CCN(NC(=O)C(=O)c4ccc(O)c(O)c4Cl)C(=O)C3=O)S[C@H]12)c1csc(N)n1)C(=O)O` [Example 126, (3R,5R,6R)-6-((Z)-2-(2-aminothiazol-4-yl)-2-(((2-carboxypropan-2-yl)oxy)imino)acetamido)-3-(4-(2-(2-chloro-3,4-dihydroxyphenyl)-2-oxoacetamido)-2,3-dioxopiperazin-1-yl)-7-oxo-4-thia-1-azabicyclo[3.2.0]heptane-3-carboxylate] the value was at least 90%; for `COC[C@@H](NC(=O)C(=O)c1ccc(O)c(O)c1Cl)C(=O)NN1CCN([C@]2(C(=O)O)CN3C(=O)[C@@H](NC(=O)/C(=N\OC(C)(C)C(=O)O)c4csc(N)n4)[C@H]3S2)C1=O` [Example 139, (3R,5R,6R)-6-((Z)-2-(2-aminothiazol-4-yl)-2-(((2-carboxypropan-2-yl)oxy)imino)acetamido)-3-(3-((R)-2-(2-(2-chloro-3,4-dihydroxyphenyl)-2-oxoacetamido)-3-methoxypropanamido)-2-oxoimidazolidin-1-yl)-7-oxo-4-thia-1-azabicyclo[3.2.0]heptane-3-carboxylate], at least 90%.
